The record followed here is US12098145B2 (Libra Therapeutics, Inc., priority 2022, dated 2024).

One test addresses T1, TRPML1 (Homo sapiens, UniProt Q9GZU1).
T1 construct: expressed in transfected cells; host or cells: HEK T-REx cells stably expressing GCaMP6f and TRPML1
Nature of the test: Cellular TRPML1 assay (FLIPR, GCaMP6f calcium read-out). As to conditions: HEKT-REx/GCaMP6f/TRPML1 cells, FLIPR TETRA, kinetic response over 300 seconds; read-out: TRPML1 FLIPR pEC50 (converted). The class given is cell-based. The procedure, abridged: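 Read-out is GCaMP6f fluorescence over 300 s after compound addition in Ca2+-free Tyrode's buffer, final DMSO 0.5%, on FLIPR Tetra. Cells are HEK T-REx stably co-expressing the indicator and TRPML1, plated 24 h earlier in Optimem + 0.5% FBS and pre-incubated ~10 min at room temperature.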

A further test deals with TFEB. Nature of the test: TFEB translocation assay (TFEB reporter in U2OS cells, imaging). In kind it is cell-based. As to conditions: Homo sapiens; U2OS cell line with TFEB reporter, 2 hours incubation, nucleus to cytoplasm ratio, normalized to Torin-1; read-out: TFEB Translocation pEC50 (converted). The procedure, abridged:
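Activity expresses the mean nuclear-to-cytosolic reporter ratio scaled between DMSO (0%) and Torin-1 (100%) controls. Read-out came from high-content imaging of fixed, Hoechst-counterstained U2OS cells carrying mRFP-tagged TFEB after 2 h compound exposure at 37 °C in Opti-MEM with 0.015% Tween 80 and 0.5% DMSO.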

T1 sequence (Q9GZU1 whole entry): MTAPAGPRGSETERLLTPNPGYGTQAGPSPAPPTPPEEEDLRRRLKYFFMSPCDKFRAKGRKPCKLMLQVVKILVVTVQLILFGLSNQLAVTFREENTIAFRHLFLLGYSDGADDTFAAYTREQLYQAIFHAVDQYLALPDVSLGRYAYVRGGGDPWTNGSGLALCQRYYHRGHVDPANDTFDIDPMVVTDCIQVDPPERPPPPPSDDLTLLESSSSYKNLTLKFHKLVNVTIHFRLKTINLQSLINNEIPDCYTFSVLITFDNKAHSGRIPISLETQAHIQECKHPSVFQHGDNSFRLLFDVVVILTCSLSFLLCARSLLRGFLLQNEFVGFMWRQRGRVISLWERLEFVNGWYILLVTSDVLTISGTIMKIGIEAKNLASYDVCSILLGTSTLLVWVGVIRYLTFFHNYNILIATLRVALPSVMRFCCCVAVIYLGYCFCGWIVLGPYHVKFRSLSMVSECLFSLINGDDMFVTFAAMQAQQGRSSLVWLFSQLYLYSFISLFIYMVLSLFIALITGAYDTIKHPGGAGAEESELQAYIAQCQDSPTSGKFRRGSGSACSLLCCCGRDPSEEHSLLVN

With `Cc1oc(N2CCC3(COC3)C2)nc1C(=O)Nc1ccc(N2CCCCC2)c(F)c1` [Example 90, N-(3-fluoro-4-(piperidin-1-yl)phenyl)-5-methyl-2-(2-oxa-6-azaspiro[3.4]octan-6-yl)oxazole-4-carboxamide], the EC50 on TRPML1 and in the test on TFEB was 1 to 10 µM in each case.
For the compound `Cc1oc(N2CCC3(CC3)C2)nc1C(=O)Nc1ccc(N2CCCCC2)c(F)c1` [Example 91, N-(3-fluoro-4-(piperidin-1-yl)phenyl)-5-methyl-2-(5-azaspiro[2.4]heptan-5-yl)oxazole-4-carboxamide], the EC50 on TRPML1 and with TFEB was 1 to 10 µM each time.
For `Cc1oc(N2CCC(CO)C2)nc1C(=O)Nc1ccc(N2CCCCC2)c(F)c1` (centres unmarked) [Example 96, N-(3-fluoro-4-(piperidin-1-yl)phenyl)-2-(3-(hydroxymethyl)pyrrolidin-1-yl)-5-methyloxazole-4-carboxamide], the EC50 on TRPML1 and in the test on TFEB was 10 to 100 µM in each case.
`CCOCc1oc(N2CCCC2)nc1C(=O)Nc1ccc(N2CCCCC2)c(F)c1` [Example 100, 5-(ethoxymethyl)-N-[3-fluoro-4-(piperidin-1-yl)phenyl]-2-(pyrrolidin-1-yl)oxazole-4-carboxamide]: the EC50 on TRPML1 and in the test on TFEB was 1 to 10 µM throughout.
Take `CC(C)OCc1oc(N2CCCC2)nc1C(=O)Nc1ccc(N2CCCCC2)c(F)c1` [Example 108, N-(3-fluoro-4-(piperidin-1-yl)phenyl)-5-(isopropoxymethyl)-2-(pyrrolidin-1-yl)oxazole-4-carboxamide]: the EC50 on TRPML1 is 1 to 10 µM; with TFEB, 0.01 to 1 µM.
The matching figures for `CC(C)Cc1oc(N2CCCC2)nc1C(=O)Nc1ccc(OC2CCCC2(F)F)c(F)c1` (centres unmarked) [Example 111, N-(4-((2,2-difluorocyclopentyl)oxy)-3-fluorophenyl)-5-isobutyl-2-(pyrrolidin-1-yl)oxazole-4-carboxamide]: 1 to 10 µM and 0.01 to 1 µM.
For `Cc1oc(N2CCCC2)nc1C(=O)Nc1ccc(N2CCCCC2)c(F)c1` [Example 112, N-(3-fluoro-4-(piperidin-1-yl)phenyl)-5-methyl-2-(pyrrolidin-1-yl)oxazole-4-carboxamide], the EC50 at TRPML1 and with TFEB was 1 to 10 µM in each case.
For `Cc1oc(N2CCOCC2)nc1C(=O)Nc1ccc(N2CCCCC2)c(F)c1` [Example 116, N-(3-fluoro-4-(piperidin-1-yl)phenyl)-5-methyl-2-morpholinooxazole-4-carboxamide], the EC50 on TRPML1 and in the test with TFEB was 10 to 100 µM each time.
Turning to `Cc1oc(-n2cccn2)nc1C(=O)Nc1ccc(N2CCCCC2)c(F)c1` [Example 118, N-(3-fluoro-4-(piperidin-1-yl)phenyl)-5-methyl-2-(1H-pyrazol-1-yl)oxazole-4-carboxamide], the EC50 is 10 to 100 µM on TRPML1 and 1 to 10 µM with TFEB.
The matching figures for `Cc1oc(N2CCCC2)nc1C(=O)Nc1ccc(OC2CCCC2)c(F)c1` [Example 120, N-(4-(cyclopentyloxy)-3-fluorophenyl)-5-methyl-2-(pyrrolidin-1-yl)oxazole-4-carboxamide]: 1 to 10 µM and 1 to 10 µM.
On to `COCC1(C)CN(c2nc(C(=O)Nc3cc(C)c(O[C@@H]4C[C@@H]5C[C@@H]5C4)c(F)c3)c(CC(F)(F)F)o2)C1` [Example 124, N-(4-(cis-bicyclo[3.1.0]hexan-3-yloxy)-3-fluoro-5-methylphenyl)-2-(3-(methoxymethyl)-3-methylazetidin-1-yl)-5-(2,2,2-trifluoroethyl)oxazole-4-carboxamide], for which the EC50 at TRPML1 and in the test with TFEB was 0.01 to 1 µM in each case.
For the compound `CCC1(COC)CN(c2nc(C(=O)Nc3cc(C)c(O[C@@H]4C[C@@H]5C[C@@H]5C4)c(F)c3)c(CC(F)(F)F)o2)C1` [Example 125, N-(4-(cis-bicyclo[3.1.0]hexan-3-yloxy)-3-fluoro-5-methylphenyl)-2-(3-(methoxymethyl)-3-ethylazetidin-1-yl)-5-(2,2,2-trifluoroethyl)oxazole-4-carboxamide], the EC50 at TRPML1 and with TFEB was 0.01 to 1 µM each time.
In the case of `CCC1(CO)CN(c2nc(C(=O)Nc3cc(F)c(O[C@@H]4C[C@@H]5C[C@@H]5C4)c(Cl)c3)c(CC(F)(F)F)o2)C1` [Example 126, N-(4-(cis-bicyclo[3.1.0]hexan-3-yloxy)-3-chloro-5-fluorophenyl)-2-(3-ethyl-3-(hydroxymethyl)azetidin-1-yl)-5-(2,2,2-trifluoroethyl)oxazole-4-carboxamide], the EC50 at TRPML1 and in the test with TFEB was 0.01 to 1 µM throughout.
In the case of `CCC1(CC)CN(c2nc(C(=O)Nc3cc(F)c(O[C@@H]4C[C@@H]5C[C@@H]5C4)c(Cl)c3)c(CC(F)(F)F)o2)C1` [Example 127, N-(4-(cis-bicyclo[3.1.0]hexan-3-yloxy)-3-chloro-5-fluorophenyl)-2-(3,3-diethylazetidin-1-yl)-5-(2,2,2-trifluoroethyl)oxazole-4-carboxamide], the EC50 on TRPML1 and with TFEB was 0.01 to 1 µM each time.
Turning to `Cc1cc(NC(=O)c2nc(N3CC(C)(CO)C3)oc2CC(F)(F)F)cc(F)c1O[C@@H]1C[C@@H]2C[C@@H]2C1` [Example 128], the EC50 at TRPML1 and with TFEB was 0.01 to 1 µM throughout.
Take `Cc1cc(NC(=O)c2nc(N3CC(C)(CO)C3)oc2CC(F)(F)F)cc(F)c1OC1CC2CC(C2)C1` (centres unmarked) [Example 129, N-(4-(bicyclo[3.1.1]heptan-3-yloxy)-3-fluoro-5-methylphenyl)-2-(3-(hydroxymethyl)-3-methylazetidin-1-yl)-5-(2,2,2-trifluoroethyl)oxazole-4-carboxamide]: the EC50 on TRPML1 and with TFEB was 0.01 to 1 µM throughout.
As to `COC1(C)CN(c2nc(C(=O)Nc3cc(F)c(O[C@@H]4C[C@@H]5C[C@@H]5C4)c(Cl)c3)c(CC(F)(F)F)o2)C1` [Example 130, N-(4-(cis-bicyclo[3.1.0]hexan-3-yloxy)-3-chloro-5-fluorophenyl)-2-(3-methoxy-3-methylazetidin-1-yl)-5-(2,2,2-trifluoroethyl)oxazole-4-carboxamide], the EC50 on TRPML1 and in the test with TFEB was 0.01 to 1 µM in each case.
As to `CCC1(CC)CN(c2nc(C(=O)Nc3cc(C)c(O[C@@H]4C[C@@H]5C[C@@H]5C4)c(F)c3)c(CC(F)(F)F)o2)C1` [Example 131, N-(4-(cis-bicyclo[3.1.0]hexan-3-yloxy)-3-fluoro-5-methylphenyl)-2-(3,3-diethylazetidin-1-yl)-5-(2,2,2-trifluoroethyl)oxazole-4-carboxamide], the EC50 at TRPML1 and with TFEB was 0.01 to 1 µM each time.
With `CC1(CO)CN(c2nc(C(=O)Nc3ccc(OC4CC5CC(C5)C4)c(F)c3)c(CC(F)(F)F)o2)C1` (centres unmarked) [Example 135, N-(4-(bicyclo[3.1.1]heptan-3-yloxy)-3-fluorophenyl)-2-(3-(hydroxymethyl)-3-methylazetidin-1-yl)-5-(2,2,2-trifluoroethyl)oxazole-4-carboxamide], the EC50 at TRPML1 and with TFEB was 0.01 to 1 µM each time.
Take `CC1(C)CN(c2nc(C(=O)Nc3ccc(OC4CCC5CC54)c(F)c3)c(CC(F)(F)F)o2)C1` (centres unmarked) [Example 140, N-(4-(bicyclo[3.1.0]hexan-2-yloxy)-3-fluorophenyl)-2-(3,3-dimethylazetidin-1-yl)-5-(2,2,2-trifluoroethyl)oxazole-4-carboxamide]: the EC50 at TRPML1 is 1 to 10 µM; in the test on TFEB, 0.01 to 1 µM.
For the compound `COC1(C)CN(c2nc(C(=O)Nc3cc(F)c(O[C@@H]4C[C@@H]5C[C@@H]5C4)c(C#N)c3)c(CC(F)(F)F)o2)C1` [Example 142, N-(4-(cis-bicyclo[3.1.0]hexan-3-yloxy)-3-cyano-5-fluorophenyl)-2-(3-methoxy-3-methylazetidin-1-yl)-5-(2,2,2-trifluoroethyl)oxazole-4-carboxamide], the EC50 at TRPML1 and in the test with TFEB was 0.01 to 1 µM in each case.
Regarding `O=C(Nc1ccc(OC2CC3CC(C3)C2)c(F)c1)c1nc(N2CCCC2)oc1CC(F)(F)F` (centres unmarked) [Example 143, N-(4-(bicyclo[3.1.1]heptan-3-yloxy)-3-fluorophenyl)-2-(pyrrolidin-1-yl)-5-(2,2,2-trifluoroethyl)oxazole-4-carboxamide], the EC50 at TRPML1 and with TFEB was 0.01 to 1 µM in each case.
Regarding `O=C(Nc1cc(F)c(O[C@@H]2C[C@@H]3C[C@@H]3C2)c(F)c1)c1nc(N2CCC3COCC32)oc1CC(F)(F)F` (stereo partly drawn) [Example 144, N-(4-(cis-bicyclo[3.1.0]hexan-3-yloxy)-3,5-difluorophenyl)-2-(hexahydro-1H-furo[3,4-b]pyrrol-1-yl)-5-(2,2,2-trifluoroethyl)oxazole-4-carboxamide], the EC50 at TRPML1 and in the test with TFEB was 0.01 to 1 µM in each case.
As for `CCC1(CC)CN(c2nc(C(=O)Nc3cc(F)c(OC4CC5CC(C5)C4)c(F)c3)c(CC(F)(F)F)o2)C1` (centres unmarked) [Example 145, N-(4-(bicyclo[3.1.1]heptan-3-yloxy)-3,5-difluorophenyl)-2-(3,3-diethylazetidin-1-yl)-5-(2,2,2-trifluoroethyl)oxazole-4-carboxamide], the EC50 on TRPML1 and in the test with TFEB was 0.01 to 1 µM in each case.
`CCC1(OC)CN(c2nc(C(=O)Nc3cc(F)c(OC4CC5CC(C5)C4)c(F)c3)c(CC(F)(F)F)o2)C1` (centres unmarked) [Example 148, N-(4-(bicyclo[3.1.1]heptan-3-yloxy)-3,5-difluorophenyl)-2-(3-ethyl-3-methoxyazetidin-1-yl)-5-(2,2,2-trifluoroethyl)oxazole-4-carboxamide]: the EC50 on TRPML1 and in the test on TFEB was 0.01 to 1 µM throughout.
